Results: patent US20220332695A1, “UREA DERIVATIVES AS CB1 ALLOSTERIC MODULATORS” (RTI INTERNATIONAL, priority 2019, published 2022)
Converted amounts (≈) assume the structure as drawn. “Also recorded” adds a separate entry of the source. Where two headings read alike, the source gives them in different places.

Tests used:
[1] = system: locomotion in rats; test: Locomotion in rats; details: rat, 10 mg/kg i.p.
Text: (§6) Locomotion is presented as total distance (in millimeters (mm)) versus time (in minutes) after administration. The effects of treatment with vehicle is also shown as a control.

[2] = Kinetic solubility assessment; assay type: physicochemical; details: phosphate buffer, 2 hours room temperature
Experimental: The solution was agitated on a VX-2500 multi-tube vortexer (VWR International, Radnor, Pa., United States of America) for 2 hours at room temperature. Following agitation, the sample was filtrated on a glass-fiber filter (1 μm) and the eluate was diluted 400-fold with a mixture of acetonitrile: water (1:1). On each experimental occasion, nicardipine and imipramine were assessed as reference compounds for low and high solubility, respectively. All samples were assessed in triplicate and analyzed by LC-MS/MS using electrospray ionization against standards prepared in the same matrix.

[3] = target: T1, hCB1R (Homo sapiens, UniProt P21554); test: Real-time BRET CAMYEL cAMP assay in HEK293 cells expressing human CB1; assay type: cell-based; set-up: expressed in transfected cells; host or cells: HEK293 cells stably transfected with human CB1, transiently transfected with pcDNA3L-His-CAMYEL sensor; details: [CP] = 100 nM; forskolin-stimulated cAMP
T1 sequence (P21554 whole entry): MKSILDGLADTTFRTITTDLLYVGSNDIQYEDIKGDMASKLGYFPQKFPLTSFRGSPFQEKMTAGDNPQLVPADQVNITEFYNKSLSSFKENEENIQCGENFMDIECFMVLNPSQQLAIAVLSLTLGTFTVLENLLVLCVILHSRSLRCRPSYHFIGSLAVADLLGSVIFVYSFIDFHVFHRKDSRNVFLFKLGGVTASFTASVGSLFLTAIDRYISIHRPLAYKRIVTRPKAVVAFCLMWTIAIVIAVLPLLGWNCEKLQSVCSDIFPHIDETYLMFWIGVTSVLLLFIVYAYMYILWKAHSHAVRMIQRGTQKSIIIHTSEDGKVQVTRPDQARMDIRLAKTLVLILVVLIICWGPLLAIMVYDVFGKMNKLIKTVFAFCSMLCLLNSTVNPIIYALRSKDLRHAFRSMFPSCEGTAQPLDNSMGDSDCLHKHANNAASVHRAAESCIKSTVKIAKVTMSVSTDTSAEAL
Experimental: cAMP Assay: The cAMP assay was performed as previously described. […] Briefly, forskolin (FSK)-stimulated cyclic adenosine monophosphate (cAMP) production was measured in real-time using a transfected bioluminescence resonance energy transfer (BRET) cAMP sensor. The plasmid encodes a cAMP binding domain (Epac1) flanked by yellow fluorescent protein (YFP) and Renilla Luciferase (RLuc) assay, the latter of which can oxidize coelenterazine H and produce a photon as a byproduct. When cAMP is bound to the Epac1 domain, it separates RLuc and YFP so only Rluc emits a photon at a wavelength of 460 nm. When cAMP is not bound, RLuc can excite YFP, emitting light at wavelength 535 nm. A plate reader measures both wavelengths and their ratio, 460/535, is calculated to quantify cAMP levels where increases in the ratio indicate increases in cAMP. Human Embryonic Kidney 293 (HEK293) cells stably transfected with the human cannabinoid type-1 (C131) were maintained at 37° C. at 5% CO2 and seeded in 100 mM dishes for transfection. The next day, cells were given fresh growth media and transfected with 5 pg of pcDNA3L-His-CAMYEL using linear polyethyleneimine (25 kDa, Polysciences, Warrington, Pennsylvania, United States of America) in 1:6 DNA:PEI (ATCC, Manassas, Virginia, United States of America) ratio. The next day, cells were lifted using 1 mM EDTA in PBS and spun down at 200xg for 5 min. The supernatant was removed, and cells were resuspended in growth media and plated on poly-D-lysine (Sigma Aldrich, St. Louis, Missouri, United States of America) coated white 96 well plates at 60,000 cells per well, filling 2 columns of 8 wells each per plate, i.e. 8 samples in duplicate per plate (Perkin Elmer, Waltham, Massachusetts,
United States of America). The following day, media was removed, cells were rinsed with PBS and buffers/reagents/drugs added as following: At 0 min, 175 of stimulation buffer (5 mg/ml bovine serum albumin in HBSS including Ca^2+ and Mg^2+); at 10 min, 25 μL of allosteric modulators added; at 15 min: 25 μL coelenterazine added (5 μM final); at 25 min, 25 μL of forskolin (10 final) with or without CP55,940 (100 nM final) added. […] Ratio of 460/535 is calculated for each time point and plotted across time and area under the curve analysis is conducted for each replicate and averaged by condition/day where each day serves as an independent experiment. Data were calculated as %FSK using the formula [(sample-basal)/(forskolin-basal)×100]. IC50 values were calculated from these normalized concentration-response data using Prism 6 (Graphpad Software, San Diego, Calif., United States of America) using 3 parameter non-linear regression. Data are plotted as mean of at least N=3 independent experiments either normalized to forskolin (concentration response data) or the calculated 460/535 BRET ratio (time course data).

[4] = target: T1, hCB1R; test: Calcium mobilization assay, antagonist mode against CP55,940; assay type: cell-based; set-up: expressed in transfected cells; host or cells: CHO-RD-HGA16 cells (parental line from Molecular Devices)
Experimental: Calcium Mobilization Assay: CHO-RD-HGA16 cells (Molecular Devices, San Jose, Calif., United States of America) stably expressing the human CB1 receptor were plated into 96-well black-walled assay plates at 25,000 cells/well in 100 pL of Ham's F12 (supplemented with 10% fetal bovine serum, 100 units of penicillin/streptomycin, and 100 µg/mL Normocin) and incubated overnight at 37° C., 5% CO2. Calcium 5 dye (Molecular Devices, San Jose, Calif., United States of America) was reconstituted according to the manufacturer's instructions. The reconstituted dye was diluted 1:40 in prewarmed (37° C.) assay buffer (1x HBSS, 20 mM HEPES, 2.5 mM probenecid, pH 7.4 at 37° C.). Growth medium was removed, and the cells were gently washed with 100 pL of prewarmed (37° C.) assay buffer. The cells were incubated for 45 min at 37° C., 5% CO2 in 200 pL of the diluted Calcium 5 dye solution. […] Serial dilutions of the test compounds were prepared at 10x the desired final concentration in 2.25% BSA/4.5% DMSO/4.5% EtOH/assay buffer. After the dye loading incubation period, the cells were pretreated with 25 pL of the test compound serial dilutions and incubated for 15 min at 37° C. After the pretreatment incubation period, the plate was read with a FLIPR Tetra (Molecular Devices, San Jose, Calif., United States of America). Calcium-mediated changes in fluorescence were monitored every 1 s over a 90 s time period, with the Tetra adding 25 pL of the CP55,940 EC80 concentration at the 10s time point (excitation/emission: 485/525 nm). Relative fluorescence units (RFU) were plotted against the log of compound concentrations. For agonist screens, the above procedure was followed except that cells were pretreated with 2.25% BSA/4.5% DMSO/4.5% EtOH/assay buffer and the Tetra added single concentration dilutions of the test compounds prepared at 10x the desired final concentration in 0.25% BSA/0.5% DMSO/0.5% EtOH/assay buffer. Test compound RFUs were compared to the CP55,940 Emax RFUs to generate % Emax values.
Data Analysis: For calcium mobilization experiments, data were fit to a three-parameter logistic curve to generate IC50 values (GraphPad Prism 6.0, Graphpad Software, San Diego, Calif., United States of America).

[5] = Metabolic stability in rat liver microsomes; assay type: in vitro ADME
Experimental: Metabolic stability assessment: Compounds were incubated with rat liver microsomes at 37° C. for a total of 45 minutes. The reaction was performed at pH 7.4 in 100 mM potassium phosphate buffer containing 0.5 mg/mL of rat liver microsomal protein. Phase I metabolism was assessed by adding NADPH to a final concentration of 1 mM and collecting samples at time points 0, 5, 15, 30 and 45 minutes. All collected samples were quenched 1:1 with ice-cold stop solution (1 μM labetalol and 1 μM glyburide in acetonitrile) and centrifuged to remove precipitated protein. Resulting supernatants were further diluted 1:4 with acetonitrile:water (1:1). Samples were analyzed by LC/MS/MS and calculations for half-life, and in-vitro clearance were accomplished using Microsoft Excel (2007).

[6] = target: T2, mouse CB1R (Mus musculus, UniProt P47746); test: [35S]GTPγS binding assay in mouse cerebellum membranes; assay type: biochemical
T2 construct: membranes (10 μg protein) from either ICR mouse cerebellum mice; from tissue; host or cells: cerebellum membranes of ICR mice
T2 sequence (P47746 whole entry): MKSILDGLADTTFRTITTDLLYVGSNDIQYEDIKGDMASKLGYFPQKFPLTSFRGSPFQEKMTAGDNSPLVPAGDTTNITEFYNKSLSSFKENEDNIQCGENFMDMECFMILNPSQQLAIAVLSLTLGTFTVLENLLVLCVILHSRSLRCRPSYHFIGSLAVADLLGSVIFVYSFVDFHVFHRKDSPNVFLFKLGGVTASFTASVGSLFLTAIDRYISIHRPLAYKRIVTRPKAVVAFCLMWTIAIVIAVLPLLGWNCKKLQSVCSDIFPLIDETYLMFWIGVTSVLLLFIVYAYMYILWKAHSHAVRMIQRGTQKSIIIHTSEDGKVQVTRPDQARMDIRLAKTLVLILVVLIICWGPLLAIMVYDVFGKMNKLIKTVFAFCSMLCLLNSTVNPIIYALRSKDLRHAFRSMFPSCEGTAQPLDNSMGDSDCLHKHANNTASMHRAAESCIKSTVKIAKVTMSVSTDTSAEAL
Experimental: (§7) [^35S]GTPγS Binding Assay: For receptor signaling, membranes (10 μg protein) from either ICR mouse cerebellum mice (6-8 weeks old; Enviga
(§8) Non-specific binding was determined by adding 30 μM unlabeled GTPyS. Concentration response curves for allosteric modulators were conducted in the presence of CP55,940 (100 nM or 1 μM) to calculate 1050 values.
(§9) For [^35S]GTPyS experiments, data were normalized to maximal CP55,940 (100 nM) stimulation in the absence of test compound (i.e., vehicle=100%).
Select compounds were evaluated in the CP55,940-induced [^35S]GTPyS binding assays using mouse cerebellum membrane at two CP55,940 concentrations, 100 nM and 1μM.

[7] = target: T1, hCB1R; test: Intrinsic activity: basal [35S]GTPγS binding in the absence of CP55,940; assay type: biochemical; details: up to 10 μM
[8] = system: MDCK-MDR1 cells; test: Bidirectional MDCK-MDR1 permeability assay; assay type: in vitro ADME
Experimental: (§1) Permeability Assessment. Bidirectional MDCK-MDR1 permeability assay was performed by Paraza Pharma Inc. (Montreal, Canada). MDCK-mdr1 cells at passage 5 were seeded onto permeable polycarbonate supports in 12-well Costar Transwell plates and allowed to grow and differentiate for 3 days. On day 3, culture medium (DMEM supplemented with 10% FBS) was removed from both sides of the transwell inserts and cells were rinsed with warm HBSS. After the rinse step, the chambers were filled with warm transport buffer (HBSS containing 10 mM HEPES, 0.25% BSA, pH 7.4) and the plates were incubated at 37° C. for 30 min prior to TEER (Trans Epithelial Electric Resistance) measurements.
(§2) The buffer in the donor chamber (apical side for A-to-B assay, basolateral side for B-to-A assay) was removed and replaced with the working solution (10 μM test article in transport buffer). The plates were then placed at 37° C. under light agitation. At designated time points (30, 60 and 90 min), an aliquot of transport buffer from the receiver chamber was removed and replenished with fresh transport buffer. Samples were quenched with ice-cold ACN containing internal standard and then centrifuged to pellet protein. Resulting supernatants are further diluted with 50/50 ACN/H2O (H2O only for Atenolol) and submitted for LC-MS/MS analysis. Reported apparent permeability (Papp) values were calculated from single determination.
(§3) Atenolol and propranolol were tested as low and […] permeability references.
(§4) The apparent permeability (Papp, measured in cm/s) of a compound is determined according to the following formula […]: […]
(§5) where dQ/dt is the net rate of appearance in the receiver compartment; A is the area of the Transwell measured in cm^2 (1.12 cm^2); Ci is the initial concentration of compound added to the donor chamber; and 60 is the conversion factor for minute to second.

[9] = target: T1, hCB1R; test: [35S]GTPγS binding assay in HEK cells stably expressing human CB1R; assay type: biochemical; set-up: expressed in transfected cells; host or cells: HEK (HEK293) cells, membranes; details: [CP] = 100 nM, mean (95% confidence interval), read-out: hCB1R [35S]GTPγS binding assay IC50
Experimental: as §7, §8, §9

[10] = system: cocaine-seeking behavior in rats; test: Cocaine-induced reinstatement of extinguished cocaine-seeking behavior; assay type: in vivo, male Sprague-Dawley rats; details: rat, 10 mg/kg i.p. pretreatment
Experimental: In both graphs, the effect of treatment with vehicle (unfilled bars) is shown as a control. *p<0.05.
Adult male Sprague-Dawley rats (Harlan, Indianapolis, Ind., United States of America) weighing 280-300 g were used in the study. Animals were housed individually on a 12/12 hr light/dark cycle (behavioral experiments were conducted during the light period) with free access to water and food except during experimental sessions.
The reinstatement procedure has been previously described. See Jing et al., Drug Alcohol Depend. 2014, 143, 251-256; and Thorn et al., Neuropsychopharmacology 2014, 39, 2309-2316. Briefly, rats were surgically implanted with a chronic indwelling jugular catheter. […]
Data analyses: Data are expressed as mean ±S.E.M. Differences in active lever responding between the last extinction session and reinstatement session were determined with paired t tests (within subjects comparison). The effects of compounds 2 on reinstatement were analyzed by a one-way analysis of variance (ANOVA) followed by post hoc Bonferroni's test (between subjects comparison). The effects of compounds 34 on reinstatement was analyzed by Student's t test. […]

[11] = system: locomotion in rats; details: rat, in vivo, ip, 10 mg/kg
Text: as §6

[12] = system: P-gp (MDR1); test: Bidirectional MDCK-MDR1 permeability assay; assay type: in vitro ADME; details: dog, pH 7.4; MDCK-MDR1, 10 μM test article
Experimental: as §1, §2, §3, §4, §5

SMILES: O=C(Nc1ccc(Cl)cc1)Nc1ccc(-c2ccccc2)s1 [Compound 11, 1-(4-Chlorophenyl)-3-(5-phenylthiophen-2-yl)urea]
- effect on locomotion [1]: significant reduction of locomotion
- solubility at 2 h [2]: 1.5 µM (≈ 0.493 µg/mL)
- IC50 [3]: 1760 nM
- IC50 ([4]; CHO cells expressing human CB1R, against CP55,940 (100 nM), mean ± SEM, read-out: hCB1R Calcium assay IC50): 7 nM
- Clearance ([5]; mean ± SD): 22.2 ± 6.5 µL/min/mg
- IC50 ([6]; mouse cerebellum membrane, [CP] = 100 nM, read-out: mCB1R GTPγS IC50): 63 nM
- inverse agonism (in words) [7]: some degree of inverse agonism; also recorded: very little inverse agonism
- Efflux BA/AB ([8]; MDCK-MDR1): 0.7
- Papp A to B ([8]; MDCK-MDR1, 10 μM test article): 1.6 ± 0.1 ×10^−6 cm/s
- Papp B to A ([8]; MDCK-MDR1, 10 μM test article): 1.1 ± 0.4 ×10^−6 cm/s
- IC50 [9]: 524 nM

SMILES: O=C(NCCc1cccc(Cl)c1)Nc1ccc(Cl)cc1 [Compound 68, 3-(4-Chlorophenyl)1-[2-(3-chlorophenyl)ethyl]urea]
- effect on cocaine-induced reinstatement of cocaine-seeking behavior [10]: good in vivo efficacy; also recorded: attenuated cocaine-induced reinstatement of cocaine-seeking behavior
- solubility at 2 h ([2]; aqueous buffer, kinetic from dmso stock): < 0.5 µM
- IC50 [4]: 30 ± 4 nM
- half-life ([5]; pH 7.4, NADPH, mean ± SD, read-out: Half-life): 9.6 min
- microsomal CLint ([5]; pH 7.4, mean ± SD, read-out: Clearance): 144 ± 8.4 µL/min/mg
- IC50 ([6]; Tables 4-6, CP55,940 concentration not stated, mean (95% confidence interval), read-out: mCB1R [35S]GTPγS binding assay IC50): 561 nM
- effect on locomotion [11]: did not affect locomotion
- Papp A→B at 90 min, 10 µM [12]: > 15 ×10⁻⁶ cm/s
- Papp B→A at 90 min, 10 µM [12]: > 15 ×10⁻⁶ cm/s
